{"source": "patent US8759579B2", "about": "“Cyclobutyl sulfones as notch sparing gamma secretase inhibitors” (Merck Sharp & Dohme Corp., priority 2008, dated 2014)", "key": {"[1]": {"system": "γ-secretase substrates NotchΔE, E-cadherin, SCN2b and CD43 in HEK293 cells", "assay": "Full length γ-secretase substrates, immunoblot of cell lysates", "type": "cell-based", "conditions": "titrated concentrations with TPA", "experimental": "Assessing Full Length γ-Secretase Substrates (Assay Qualitatively Assesses the Processing of a Panel of γ-Secretase Substrates)\nCells are plated and treated overnight with titrated compound and the phorbol ester, TPA. Since all of the proteins undergo regulated membrane proteolysis characterized by an initial ectodomain shedding event followed by the intramembraneous cleavage of the […] fragment (CTF) by γ-secretase, TPA induces the initial cleavage event producing the substrate for γ-secretase. The effect of compounds on γ-secretase activity in relation to these substrates is measured by tracking the processing of the V5 tagged CTFs by Western blot analysis. Accumulation of the CTFs indicates inhibition of γ-secretase activity."}, "[2]": {"assay": "covalent protein binding assay with liver microsomes", "type": "in vitro ADME", "conditions": "radiolabeled compound incubated with human liver microsomes", "experimental": "MRK-560 and Example 2 were tested in a covalent protein binding assay which is predictive of drug toxicity. The potential of drug candidates to cause covalent binding to proteins is evaluated by incubation of the radiolabeled version of the compound in question with liver microsomes. A semi-automated method based on Brandel Harvester technique is then used to measure the formation of covalent adducts of the test compound to liver proteins binding (Ref. Day et. al, J Pharmacol Toxicol Methods. 52, 278-85, 2005)."}, "[3]": {"system": "APP and Notch processing pathway", "conditions": "literature report; cited from earlier work"}, "γ-secretase complex": {"system": "γ-secretase complex", "assay": "Compound binding assay (displacement of tritiated γ-secretase inhibitor tracers)", "conditions": "semi-purified γ-secretase complex, increasing concentrations", "experimental": "Compound Binding: (Assay Quantitates In Vitro Displacement of Bound γ-Secretase Inhibitor Tracers)\nAll radioligand binding experiments are performed using CHAPSO-solubilized HEK293 (gammaNRCF8) P2 membranes stably over expressing recombinant gamma secretase. For radioligand binding, solubilized enzyme is incubated in the presence of tritiated inhibitors. Nonspecific binding is determined by adding an excess of unlabeled inhibitor to the reaction, and serial dilutions of the tritiated ligands are used to obtain saturation binding isotherm. Bound ligand is separated from free ligand by adsorption of the enzyme complex to polyethyleneimine-coated glass fiber filter plates and rapid filtration in a cell harvester followed by washing. After drying plates, scintillant is added, and the plates are read on a Microplate Scintillation counter. Binding competition assay is performed by incubating serial dilutions of various inhibitors in the presence of 1 nM ^3H-labeled compound Reference Example L-458 (transition state inhibitor) or 4 nM ^3H-labeled compound Reference Example L-881 (non-transition state inhibitor). To determine the antagonist competitiveness of various inhibitors, respective ^3H tracer doss-response curves are analyzed in presence of different concentrations of these compounds."}, "Tg2576 mouse": {"system": "Tg2576 mouse", "conditions": "cited from earlier work"}, "[4]": {"system": "ε/S3-site cleavage of γ-secretase substrates (APP-GVP, NotchΔE-GVP, E-cadherin-GVP, CD44-GVP)", "assay": "ICD transactivation assay (intracellular domain release of γ-secretase substrates)", "type": "cell-based", "conditions": "HEK cells, 1 μM, 48 hours", "text": "ICD Transactivation (Assay Quantitates Intracellular Domain Release of a Panel of γ-Secretase Substrates in Cell Lines)\nA Firefly luciferase based transactivation assay is used to measure inhibition of ε/S3-site cleavage of γ-secretase substrates. This assay involves the use of chimeric substrates harboring a GAL4/VP16 (GVP) transactivation domain fused to the intracellular domain (ICD): APP-GVP, NotchΔE-GVP, E-cadherin-GVP and CD44-GVP. Upon cleavage and release of ICDs, the GVP domain drives the expression of the luciferase gene under the control of the UAS promoter. In this assay, HEK cells were transiently co-transfected with the chimeric substrate along with a UAS promoter driven luciferase and β-galactosidase (transfection control). Upon cleavage by γ-secretase, the released ICD-GVP translocates to the nucleus to drive the expression of the UAS-luciferase gene. The activity of luciferase in these cells is directly proportional to the amount of γ-secretase-cleaved ICDs. Luciferase activity is determined by the standard techniques of luciferin addition to lysed cells and measurement of total luminescence. In addition, to account for the differences in transfection efficiencies an absorbance based β-galactosidase enzyme assay is performed to normalize the luminescence read-out."}, "[5]": {"molecular_target": "T1, pregnane X receptor (PXR) (Homo sapiens, UniProt O75469)", "T1 construct": "expressed in transfected cells; host or cells: HEP G2", "T1 sequence (O75469 1-434)": "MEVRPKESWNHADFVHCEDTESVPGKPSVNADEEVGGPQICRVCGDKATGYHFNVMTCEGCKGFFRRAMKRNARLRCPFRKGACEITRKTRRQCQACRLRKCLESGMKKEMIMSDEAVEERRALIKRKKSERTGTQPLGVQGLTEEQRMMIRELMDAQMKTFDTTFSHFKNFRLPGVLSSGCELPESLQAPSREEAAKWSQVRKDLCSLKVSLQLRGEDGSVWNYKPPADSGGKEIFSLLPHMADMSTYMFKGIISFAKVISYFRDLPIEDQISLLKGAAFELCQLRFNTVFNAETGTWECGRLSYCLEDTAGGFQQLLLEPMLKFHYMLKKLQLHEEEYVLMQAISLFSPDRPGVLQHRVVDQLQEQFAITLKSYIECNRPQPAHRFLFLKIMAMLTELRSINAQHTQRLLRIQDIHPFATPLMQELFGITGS", "T1 sequence (P19793 1-462 partner)": "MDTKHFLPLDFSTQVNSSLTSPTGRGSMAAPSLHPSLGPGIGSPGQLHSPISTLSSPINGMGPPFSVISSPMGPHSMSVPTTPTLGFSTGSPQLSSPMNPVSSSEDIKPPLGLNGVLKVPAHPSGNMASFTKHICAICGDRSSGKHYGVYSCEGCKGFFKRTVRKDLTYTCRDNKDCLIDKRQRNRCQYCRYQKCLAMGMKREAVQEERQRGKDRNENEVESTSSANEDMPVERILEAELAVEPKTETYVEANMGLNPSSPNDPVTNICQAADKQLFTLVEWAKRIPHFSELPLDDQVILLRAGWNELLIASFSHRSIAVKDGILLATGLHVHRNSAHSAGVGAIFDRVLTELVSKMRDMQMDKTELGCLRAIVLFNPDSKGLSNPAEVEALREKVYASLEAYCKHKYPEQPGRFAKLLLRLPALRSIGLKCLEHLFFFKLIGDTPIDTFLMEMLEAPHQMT", "assay": "PXR assay (CYP3A4-SEAP transactivation assay, PCSTA)", "type": "cell-based", "conditions": "HEP G2 cells", "text": "The CYP3A4-SEAP transactivation assay (PCSTA) effectively and rapidly evaluates compounds for their potential to induce cytochrome P450 CYP3A (human CYP3A4 or rat CYP3A1). The reporter construct contains regulatory regions from the CYP3A4 gene positioned just upstream of a secreted alkaline phosphatase (SEAP) gene. The human PXR nuclear receptor has been modified at the 5′-end so that methionine is the initiating amino acid replacing leucine found in the wild-type sequence. HEP G2 cells are transfected with the PXR plasmid (human or rat) and the reporter plasmid. Read-out for the induction of CYP3A4 consists of a SEAP calorimetric assay with para-nitro-phenyl phosphate (pNPP) as the substrate. Five point dose-response curves in duplicate are then generated with each point corresponding to the rate of conversion of pNPP to pNP by SEAP. For the human PCSTA, rifampicin is used as the positive control and 100% induction is based upon the maximum induction produced by rifampicin at 10 μM."}}, "note": "pEC50: −log10 of the molar value. “Also recorded” adds a separate entry of the source."}
{"smiles": "O=S(=O)(NC1CCC(c2cc(F)ccc2F)(S(=O)(=O)c2ccc(Cl)cc2)CC1)C(F)(F)F", "note": "(stereo not shown) [MRK-560]", "values": [{"measurement": "accumulation of CTFs (immunoblot)", "setting": "[1]; HEK293 cells overexpressing E-cadherin, SCN2b, CD43", "result": "caused accumulation of CTFs; also recorded: SCN2b-, ECAD- and CD43-CTF accumulation"}, {"measurement": "NICD generation (immunoblot)", "setting": "[1]; HEK293 cells overexpressing NotchΔE", "result": "inhibited NICD generation"}, {"measurement": "covalent protein binding (human microsomes)", "setting": "[2]", "result": 1308, "unit": "pmol/mg"}, {"measurement": "separation between in vitro inhibition of APP and Notch processing pathway", "setting": "[3]", "result": "little or no separation"}, {"measurement": "displacement of tritiated tracer L-458 (transition state)", "setting": "γ-secretase complex", "result": "partial"}, {"measurement": "displacement of tritiated tracer L-881 (non transition state)", "setting": "γ-secretase complex", "result": "full"}, {"measurement": "effects on amyloid plaque deposition", "setting": "Tg2576 mouse", "result": "beneficial effects on amyloid plaque deposition"}, {"measurement": "toxicity related to changes in the Notch signaling pathway", "setting": "Tg2576 mouse", "result": "absence of toxicity"}, {"measurement": "ICD release of γ-secretase substrates (ε/S3-cleavage)", "setting": "[4]", "result": "inhibited ICD release of all examined substrates"}, {"measurement": "pEC50", "setting": "[5]", "result": 6.21}]}
